Values joined by “and” are separate entries in the source; they are usually repeats but may differ in a detail not shown here. Equal entries are not always repeated.

Consider 66 molecules from the supplement of paper PMC10949913.

The first assay concerns NCI-H295R. Put plainly: area under concentration-response curve (viability) (AUC (a.u.)); higher = less active. As to conditions: 48 h. In a few lines:
(§1)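 Cells from three adrenocortical carcinoma lines were seeded at 500–1,000 cells/well in 5 µL medium in 1,536-well plates. Each library compound was added as 23 nL at 11 concentrations, and after 48 h CellTiter-Glo was added for 15 minutes at room temperature before reading luminescence. Plate-wise normalisation to vehicle and empty-well controls preceded curve fitting. AC50 and area under the curve were calculated only for inhibitory or non-responding curve classes.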
In the case of `CC(C)Oc1ccc2c(=O)c(-c3ccccc3)coc2c1`, the “area under concentration-response curve” value stood at 559.

Turning to `Cc1c(C)n(Cc2ccc(-c3ccccc3C(=O)O)cc2)c2ccc(C(=O)N[C@@H](C)c3ccc([N+](=O)[O-])cc3)cc12`, the “area under concentration-response curve” value was determined as 402. Same read-out and setting: then `OC[C@H]1O[C@H]([C@H](O)[C@@H](O)[C@@H]1O)C2=C(O)C=CC3=C2O/C=C(C3=O)/C4=CC=C(O)C=C4`, with 540; and `C=CC(=O)N1CCC[C@@H](n2nc(-c3ccc(Oc4ccccc4)cc3)c3c(N)ncnc32)C1`, with 459. Same read-out and setting: for `COc1ncc(-c2ccc3c(Nc4cc(Oc5cc(F)cc(F)c5)cc(C(=O)O)c4)c([S+](=O)([O-])NC4CC4)cnc3c2)c(OC)n1` the value was 516; for `CSC1=CC(=CC=C1)NC2=NC3=C(C=N2)/C=C(C(=O)N3C)/C4=C(Cl)C=CC=C4Cl`, 495. As for `CC1OC(OC/2=C(/OC3=C(C(=CC(=C3)O)O)C2=O)C4=CC=C(O)C=C4)C(O)C(OC(C)=O)C1OC(C)=O` (stereo unspecified), the “area under concentration-response curve” value was 289. The same measure, in the same setting: for `CN(C)CCNC(=O)COc1c2cccc1Cc1cccc(c1OCC(=O)NCCN(C)C)Cc1cccc(c1OCC(=O)NCCN(C)C)Cc1cccc(c1OCC(=O)NCCN(C)C)C2` the value was 485; for `OC1=CC=C(C=C1)\C2=C\OC3=C(C=CC(=C3)O)C2=O`, 565. On the same count and under the same terms, then `O=C(O)CCCCC(CCSCc1ccccc1)SCc1ccccc1` (stereo unspecified), with 589; and `CCOC(=O)c1ncn2c1CN(C)C(=O)c1cc(F)ccc1-2`, with 532. On to `OC1=CC=C(C=C1)\C2=C\C(=O)C3=C(O2)C=C(O)C=C3O`, for which the “area under concentration-response curve” value was 389. Turning to `O=C(CCc1ccc(O)cc1)c1c(O)cc(O)cc1O[C@@H]1O[C@H](CO)[C@@H](O)[C@H](O)[C@H]1O`, the “area under concentration-response curve” value was found to be 242. Same read-out and setting: for `CNC(=O)[C@H]1O[C@@H](n2cnc3c(NCc4cccc(I)c4)nc(Cl)nc32)[C@H](O)[C@@H]1O` the value was 366; for `O=P1(NCCCl)OCCCN1CCCl` (stereo unspecified), 553. Same read-out and setting: then `O=[S+]([O-])(CC1CS1)c1ccc(Oc2ccccc2)cc1` (stereo unspecified), with 542. On the same count and under the same terms, for `C=CCN1C[C@H](C(=O)N(CCCN(C)C)C(=O)NCC)CC2c3cccc4[nH]cc(c34)C[C@H]21` (stereo partly specified) the value was 545; for `CN1\N=N/C2=C(N=C[N]2C1=O)C(N)=O`, 581; for `N[S+](=O)([O-])c1ccc(Nc2nc(OCC3CCCCC3)c3[nH]cnc3n2)cc1`, 554. For the molecule `CCN1CCN(C(=O)N[C@@H](C(=O)N[C@H]2[C@H]3SC\C(=C(/N3C2=O)C(O)=O)CSC4=NN=N[N]4C)C5=CC=C(O)C=C5)C(=O)C1=O`, the “area under concentration-response curve” value turned out to be 269. Still for that read-out and setting: then `COc1ccc(N(C(=O)Oc2c(C)cccc2C)c2ccnc(Nc3ccc(N4CCN(C)CC4)cc3)n2)c(OC)c1`, with 545; and `CN(C)Cc1cccc(N/C(=C2\C(=O)Nc3cc(C(=O)N(C)C)ccc32)c2ccccc2)c1`, with 558. `OC1=CC(=C(C=C1)\C2=C(O)\C(=O)C3=C(O2)C=C(O)C=C3O)O`: the “area under concentration-response curve” value came to 591. Same read-out and setting: for `Clc1ccc(Nc2nnc(Cc3ccncc3)c3ccccc23)cc1` the value was 295; for `NC(=O)c1ncn([C@@H]2O[C@H](CO)[C@@H](O)[C@H]2O)c1O`, 401 and 302. The same measure, in the same setting: for `COc1cc2c(cc1O)CC[C@@H]1[C@@H]2CC[C@]2(C)[C@@H](O)CC[C@@H]12` the value was 383; for `O=c1[nH]c2ccccc2n1CCCN1CCC(n2c(=O)[nH]c3cc(Cl)ccc32)CC1`, 539. `CC(C)[S+](=O)([O-])c1ccc2nccc(Nc3ccc4scnc4c3)c2c1`: the “area under concentration-response curve” value worked out at 491. `O=C(O)CCCCCC(=O)NN=C1CCCC1`: the “area under concentration-response curve” value came out at 548. Turning to `CCCN[C@H]1CCc2nc(N)sc2C1`, the “area under concentration-response curve” value is 566. Still for that read-out and setting: then `CNCc1ccc(-c2cc(-c3nc(-c4ccc([S+](=O)([O-])C(C)C)cc4)cnc3N)on2)cc1`, with 413.

In another assay the test system is CU-ACC1. Described as above. As to conditions: 48 h. The essentials: as §1
For `O=[S+]([O-])(O)c1ccc2cc(/N=N/c3cc([S+](=O)([O-])O)c4cccnc4c3O)ccc2c1`, the “area under concentration-response curve” value stood at 500. The same measure, in the same setting: for `CCOC(=O)\C1=C(/C)N\C2=C(C1C3=CC=C(C=C3)C4=CC=CC=C4)\C(=O)CC(C)(C)C2` (stereo unspecified) the value was 552. The same measure, in the same setting: then `FC1=CC=C(CN2\C=C/C=C(/C(=O)N[C@@H](COC3=CC4=C(NC(=O)N4)C=C3)C5=CC=CC=C5)C2=O)C=C1F`, with 546; and `COc1cc2c(Oc3ccc4[nH]c(C)cc4c3F)ccnc2cc1OCC1(N)CC1`, with 534; and `O=C(O)C[C@H]1CCc2c1[nH]c1ccc(OCc3ccc(C4CCCC4)c(C(F)(F)F)c3)cc21`, with 506. On the same count and under the same terms, for `CCc1c(O)cc(O)c(C(=O)c2ccc(OCCN3CCOCC3)c(OC)c2)c1CC(=O)N(CCOC)CCOC` the value was 216. `CCCCCNC(=O)N1CCC(CN(Cc2ccc(Cl)cc2)Cc2ccc([N+](=O)[O-])s2)C1` (stereo unspecified): the “area under concentration-response curve” value stood at 509. Consider `OC[C@H]1O[C@H]([C@@H](F)[C@@H]1O)N2\C=C/C(=O)NC2=O`, for which the “area under concentration-response curve” value was found to be 370. Turning to `C[C@@H]1CCN(C(=O)CC#N)C[C@@H]1N(C)c1ncnc2[nH]ccc12`, the “area under concentration-response curve” value was 305. Turning to `COc1cccc(OCCCN)c1-c1cc(Nc2cnc(C#N)cn2)n[nH]1`, the “area under concentration-response curve” value amounted to 347. Same read-out and setting: for `Cc1cc(C)cc(NC(=O)Cc2ccc(OC(C)(C)C(=O)O)cc2)c1` the value was 504. Take `NC(=O)c1c(OCc2c(F)cc(Br)cc2F)nsc1NC(=O)NCCCCN1CCCC1`: the “area under concentration-response curve” value amounted to 395.

Take `NC(=O)c1cccc2cn(-c3ccc([C@@H]4CCCNC4)cc3)nc12`: the “area under concentration-response curve” value is 444. Still for that read-out and setting: for `CC(=O)c1c(O)c(C)c(O)c(Cc2c(O)c3c(c(C(=O)/C=C/c4ccccc4)c2O)OC(C)(C)C=C3)c1O` the value was 323; for `O=C(NCCCCN1CCOCC1)c1cc2ccccc2o1`, 461. The same measure, in the same setting: for `CCOC(=O)c1ccc(C#Cc2ccc3c(c2)C(C)(C)CCS3)nc1` the value was 505; for `COc1ccc(Cc2ccc(NC(N)=O)cc2)cc1-c1cccc(Cl)c1`, 480; for `Cc1ccc(NC(=O)c2ccc(CN3CC[C@H](N(C)C)C3)c(C(F)(F)F)c2)cc1Nc1nccc(-c2cncnc2)n1`, 549. Same read-out and setting: for `C[C@]12CC[C@H]3[C@@H](CC(=C)\C4=C\C(=O)\C=C/[C@]34C)[C@@H]1CCC2=O` the value was 320; for `Clc1ccc(COC(Cn2ccnc2)c2ccc(Cl)cc2Cl)cc1` (stereo unspecified), 433. `O=C(O)Cc1cccc(OCCCN(Cc2cccc(C(F)(F)F)c2Cl)CC(c2ccccc2)c2ccccc2)c1`: the “area under concentration-response curve” value was found to be 535. For `Cc1ncc(Cl)cc1NCc1ccc(C(=O)NC(CC2CCCC2)C(=O)NC2CC2)s1` (stereo unspecified), the “area under concentration-response curve” value was determined as 467. Still for that read-out and setting: for `NC\1=N\C(=O)N(\C=C1)[C@H]\2[C@H](O)[C@H](O)C(=C2F)\CO` the value was 336; for `CCCCCCCN(CC)CCCC(O)c1ccc(N[S+](C)(=O)[O-])cc1` (stereo unspecified), 398. With `O=C(/C=C/N1C[C@H]2C[C@@H]1CN2c1ccccn1)c1ccccc1O`, the “area under concentration-response curve” value came to 306.

As to `COc1ccc2cc(-c3[nH]c(-c4ccc([S+](C)[O-])cc4)nc3-c3ccncc3)ccc2c1` (stereo unspecified), the “area under concentration-response curve” value was 472. Same read-out and setting: then `CC[C@H]1OC(=O)[C@H](C)[C@@H](O[C@H]2C[C@@](C)(OC)[C@@H](O)[C@H](C)O2)[C@H](C)[C@@H](O[C@@H]2O[C@H](C)C[C@H](N(C)C)[C@H]2O)[C@](C)(O)C[C@@H](C)CN(C)[C@H](C)[C@@H](O)[C@]1(C)O`, with 310. Still for that read-out and setting: then `OCCN(CCO)c1nc(N2CCCCC2)c2nc(N(CCO)CCO)nc(N3CCCCC3)c2n1`, with 478; and `CC1(C)CCC2(CC1)N[C@@H](C(=O)N[C@@H]1CC[C@@H](C(N)=O)OC1)[C@H](c1ccnc(Cl)c1F)[C@]21C(=O)Nc2cc(Cl)ccc21`, with 501; and `O=C(O)CCCc1ccc(N(CCCl)CCCl)cc1`, with 300.

Take `Cc1ccc(-c2ncc(Cl)cc2-c2ccc([S+](C)(=O)[O-])cc2)cn1`: the “area under concentration-response curve” value was found to be 366. Turning to `CCc1cc2c(cc1N1CCC(N3CCOCC3)CC1)C(C)(C)c1[nH]c3cc(C#N)ccc3c1C2=O`, the “area under concentration-response curve” value worked out at 416. Same read-out and setting: for `CCCCN(CCCC)C(=O)CN1C[C@H](c2ccc3c(c2)OCO3)[C@@H](C(=O)O)[C@@H]1c1ccc(OC)cc1` the value was 460.

In the case of `CO[C@@]12[C@H](COC(N)=O)C/3=C(N1C[C@@H]4N[C@H]24)/C(=O)/C(=C(N)\C3=O)C`, the “area under concentration-response curve” value turned out to be 378.

Turning to `COc1ccc([S+](=O)([O-])Nc2cc(-c3c(O)ccc4ccccc34)c(O)c3ccccc23)cc1`, the “area under concentration-response curve” value turned out to be 482.
